The record followed here is ChEMBL document CHEMBL5696439 (Cancer Res, 2010).

Experiment [1] concerns MDA-MB-361. As to the kind of experiment: Antiproliferative activity against human MDA-MB-361 cells assessed as cell growth inhibition incubated for 3 days by MTS assay. The format is functional, cell-based. The settings on record: MDA-MB-361, 72 h.
The subject of experiment [2] is MDA-MB-361. As to the kind of experiment: Antiproliferative activity against human MDA-MB-361 cells assessed as cell growth inhibition incubated for 1 days by MTS assay. The format is functional, cell-based. The settings on record: MDA-MB-361, 24 h. In general terms: Formazan colour is commonly taken as a measure of viable cells.
Experiment [3] relates to MDA-MB-361. As to the kind of experiment: Antiproliferative activity against human MDA-MB-361 cells assessed as cell growth inhibition incubated for 2 days by MTS assay. The settings on record: MDA-MB-361, 48 h. Type of experiment: functional, cell-based.
The test system of experiment [4] is A498. As to the kind of experiment: cells. The settings on record: Homo sapiens, A498, 48 h.
Description: Antiproliferative activity against human A498 cells assessed as cell growth inhibition incubated for 2 days by MTS assay
In experiment [5] the test system is A498. As to the kind of experiment: cells. The settings on record: Homo sapiens, A498, 24 h.
Description: Antiproliferative activity against human A498 cells assessed as cell growth inhibition incubated for 1 days by MTS assay
In experiment [6] the test system is A498. As to the kind of experiment: cells. The settings on record: Homo sapiens, A498, 72 h.
Description: Antiproliferative activity against human A498 cells assessed as cell growth inhibition incubated for 3 days by MTS assay
The test system of experiment [7] is MDA-MB-361. As to the kind of experiment: Induction of apoptosis in PI3K/mTOR hyperactive human MDA-MB-361 cells assessed as massive cell death at 0.001 to 100 micromol/L incubated for 48 hrs by FACS analysis. The format is functional, cell-based. The settings on record: dose 0.001-100 µmol/L. (Flow cytometry measures light scatter and fluorescence of single cells or particles in a stream.)

In experiment [8] the test system is A549. As to the kind of experiment: Antiproliferative activity against human A549 cells assessed as suppression in cell growth at 10 micromol/L incubated for 3 days by MTS assay relative to control. The format is functional. The settings on record: dose 10 µmol/L; time 3 day; at 10 µM.
For experiment [9], the system named is MDA-MB-361. As to the kind of experiment: Induction of apoptosis in HER2 hyperactive human MDA-MB-361 cells assessed as cell death at 0.001 to 100 micromol/L incubated for 24 hrs by FACS analysis. Type of experiment: functional, cell-based. The settings on record: dose 0.001-100 µmol/L.
The target in experiment [10] is T1, Serine/threonine-protein kinase mTOR (Homo sapiens, UniProt P42345). As to the kind of experiment: Inhibition of mTOR in human MDA-MB-361 cells assessed as 4EBP1 phosphorylation at T37/46 level at 1 micromol/L incubated 16 hrs by westernblot analysis. The format is cell-based. The settings on record: dose 1.0 µmol/L.
Experiment [11] deals with U-87 MG. As to the kind of experiment: Antitumor activity against human U-87MG cells assessed as reduction in lactate production at 1 micromol/L incubated for 24 hrs relative to control. The format is functional, U-87MG ATCC. Details: scale not given: the % may be the effect or the level left. The settings on record: dose 1 µmol/L, at 1 µM.
In experiment [12] the test system is MDA-MB-361. As to the kind of experiment: Induction of apoptosis in PI3K/mTOR hyperactive human MDA-MB-361 cells assessed as cell death at 0.001 to 100 micromol/L incubated for 24 hrs by FACS analysis. The format is functional, cell-based. The settings on record: dose 0.001-100 µmol/L.
In experiment [13] the test system is MDA-MB-361. As to the kind of experiment: Inhibition of protein synthesis in human MDA-MB-361 cells at 3 micromol/L incubated for 3 hrs by [3H] methionine incorporation based scintillation counter analysis. The format is functional, cell-based. The settings on record: dose 3.0 µmol/L.
Another experiment deals with HEK293. As to the kind of experiment: Antiproliferative activity against HEK293 cells assessed as reduction in polysomes at 0.5 micromol/L incubated for 16 hrs. The format is functional, Homo sapiens. The settings on record: dose 0.5 µmol/L.
Experiment [14] has as its system A549. As to the kind of experiment: Antitumor activity against VHL null-human A549 cells xenografted in female nude mouse model assessed as inhibition in tumor growth at 25 mg/kg, iv administered 5 times a week. Type of experiment: functional, organism-based. Background: Xenograft models place foreign cells or tissue in a host animal.
The test system of experiment [15] is A549. As to the kind of experiment: Antitumor activity against human A549 cells xenografted in female nude mouse model assessed as substantial regression in large tumor growth at 200 mg/kg, iv administered once a week. Type of experiment: functional, organism-based.
Experiment [16] relates to MDA-MB-361. As to the kind of experiment: Induction of apoptosis in HER2 hyperactive human MDA-MB-361 cells assessed as massive cell death at 0.001 to 100 micromol/L incubated for 48 hrs by FACS analysis. The format is functional, cell-based. The settings on record: dose 0.001-100 µmol/L.
Experiment [17] relates to A498. As to the kind of experiment: Antiproliferative activity against human A498 cells assessed as reduction in cell size at 1 micromol/L incubated for 48 hrs by Flow cytometry analysis relative to control. The format is functional. Details: scale not given: the % may be the effect or the level left. The settings on record: dose 1 µmol/L, at 1 µM.
Experiment [18] deals with T1, Serine/threonine-protein kinase mTOR. As to the kind of experiment: Inhibition of mTOR in human MDA-MB-361 cells assessed as 4EBP1 phosphorylation at T70 level at 1 micromol/L incubated 16 hrs by westernblot analysis. The format is cell-based. The settings on record: dose 1.0 µmol/L.
Experiment [19] shares this target. As to the kind of experiment: Inhibition of mTOR in human MDA-MB-361 cells assessed as 4EBP1 phosphorylation at S65 level at 1 micromol/L incubated 16 hrs by westernblot analysis. Type of experiment: cell-based. The settings on record: dose 1.0 µmol/L.
In experiment [20] the test system is A498. As to the kind of experiment: Antiproliferative activity against human A498 cells assessed as suppression in cell growth at 10 micromol/L incubated for 3 days by MTS assay relative to control. The settings on record: dose 10 µmol/L; time 3 day; at 10 µM. Type of experiment: functional.
Experiment [21] concerns MDA-MB-361. As to the kind of experiment: Antiproliferative activity against human MDA-MB-361 cells assessed as suppression in cell growth at 10 micromol/L incubated for 3 days by MTS assay relative to control. Type of experiment: functional. The settings on record: dose 10 µmol/L; time 3 day; at 10 µM.
Experiment [22] concerns LNCaP. As to the kind of experiment: Antiproliferative activity against human LNCaP cells assessed as suppression in cell growth at 10 micromol/L incubated for 3 days by MTS assay relative to control. Type of experiment: functional. The settings on record: dose 10 µmol/L; time 3 day; at 10 µM.
Experiment [23] relates to U-87 MG. As to the kind of experiment: Antitumor activity against human U-87MG cells assessed as lactate production incubated for 24 hrs. The format is functional, cell-based. The settings on record: U-87MG ATCC, dose 0.01-10 µmol/L.
The test system of experiment [24] is MDA-MB-361. As to the kind of experiment: Antitumor activity against human MDA-MB-361 cells assessed as reduction in oxygen consumption rate at 1 micromol/L incubated for 1 hrs relative to control. The format is functional. Details: scale not given: the % may be the effect or the level left. The settings on record: dose 1 µmol/L, at 1 µM.
For experiment [25], the system named is MDA-MB-361. As to the kind of experiment: Induction of apoptosis in human MDA-MB-361 cells assessed as PARP cleavage at 0.5 to 5 micromol/L incubated for 48 hrs by Western blot analysis. Type of experiment: functional, cell-based. The settings on record: dose 0.5-5 µmol/L.
For experiment [26], the system named is U-87 MG. As to the kind of experiment: Antiproliferative activity against human U-87MG cells assessed as suppression in cell growth at 10 micromol/L incubated for 3 days by MTS assay relative to control. Type of experiment: functional, U-87MG ATCC. The settings on record: dose 10 µmol/L; time 3 day; at 10 µM.
Experiment [27] has as its system MDA-MB-361. As to the kind of experiment: Induction of apoptosis in human MDA-MB-361 cells assessed as little increase in G1 phase at 5 micromol/L incubated for 12 hrs by FACS analysis relative to control. The format is functional, cell-based. The settings on record: dose 5.0 µmol/L.
In experiment [28] the test system is LNCaP. As to the kind of experiment: Induction of apoptosis in human LNCaP cells assessed as increase in caspase-3/caspase-7 activity at 1 to 6 uM incubated for 24 to 48 hrs. Type of experiment: functional, cell-based. The settings on record: dose 1-6 µM, time 24-48 hrs.
For experiment [29], the system named is MDA-MB-361. As to the kind of experiment: Induction of apoptosis in human MDA-MB-361 cells assessed as increase in G1 phase at 5 micromol/L incubated for 24 hrs by FACS analysis relative to control. The format is functional. The settings on record: dose 5 µmol/L, at 5 µM.
Experiment [30] has as its system MDA-MB-361. As to the kind of experiment: Induction of apoptosis in human MDA-MB-361 cells assessed as increase in caspase-3/caspase-7 activity at 1 to 6 uM incubated for 24 to 48 hrs. The format is functional, cell-based. The settings on record: dose 1-6 µM, time 24-48 hrs.

SMILES strings stand for the structures. In brackets after ≈: the same amount, converted by molar mass. Activity calls are given as the source filed them. No cut-off for these calls is given here.

The term IC50 denotes the concentration needed to halve the response being measured. Turning to `CC(=O)O[C@H]1C(=O)[C@@]2(C)[C@H]([C@H](OC(=O)c3ccccc3)[C@]3(O)C[C@H](OC(=O)[C@H](O)[C@@H](NC(=O)c4ccccc4)c4ccccc4)C(C)=C1C3(C)C)[C@]1(OC(C)=O)CO[C@@H]1C[C@@H]2O` [PACLITAXEL], the IC50 is 0.004 µg/mL (≈ 0.00468 µM) in the experiment with MDA-MB-361 [1]; over 0.15 µg/mL in the experiment on MDA-MB-361 [2]; over 0.15 µg/mL in the experiment on MDA-MB-361 [3]; over 0.15 µg/mL with A498 [4]; over 0.15 µg/mL in the experiment with A498 [5]; 0.03 µg/mL (≈ 0.0351 µM) with A498 [6].

In the case of `CO[C@H]1C[C@@H]2CC[C@@H](C)[C@@](O)(O2)C(=O)C(=O)N2CCCC[C@H]2C(=O)O[C@H]([C@H](C)C[C@@H]2CC[C@@H](OC(=O)C(C)(CO)CO)[C@H](OC)C2)CC(=O)[C@H](C)/C=C(\C)[C@@H](O)[C@@H](OC)C(=O)[C@H](C)C[C@H](C)/C=C/C=C/C=C/1C` [TEMSIROLIMUS], the result in the experiment on MDA-MB-361 [7], in the experiment on MDA-MB-361 [9], in the experiment on MDA-MB-361 [12], in the experiment with A549 [15], with MDA-MB-361 [16] and with MDA-MB-361 [25] was inactive. The Activity entry in the experiment on A549 [8] is “<=50%”; with U-87 MG [11], 80%; with HEK293, 1.02; in the experiment on A498 [17], 97%; with A498 [20], “<=50%”; with MDA-MB-361 [21], “<=50%”. Moreover, the Activity entry is “<=50%” with LNCaP [22], “Dose-Dependent Effect” with U-87 MG [23], 82% in the experiment on MDA-MB-361 [24] and “<=50%” in the experiment with U-87 MG [26]. Besides, the inhibition result (in experiment [10]; in the experiment with MDA-MB-361 [13]) was “inactive” throughout. The inhibition entry (with A549 [14]; in [18]; in experiment [19]) was “Active” each time.

As to `Oc1cccc(-c2nc(N3CCOCC3)c3oc4ncccc4c3n2)c1` [PI-103], the result in the experiment with MDA-MB-361 [27], with LNCaP [28] and with MDA-MB-361 [30] was Active. In addition, the Activity with MDA-MB-361 [29] turned out to be 27%.
